Results on one molecule are retold here after publication PMC6158189, “A pharmacological probe identifies cystathionine β-synthase as a new negative regulator for ferroptosis” (Cell Death & Disease, 2018).

Experiment [1] has as its system HEK293T cells. Briefly: cell cycle distribution (propidium iodide, flow cytometry). It is filed as cell-based. Conditions: 3 μM, 12 h. Here is the method:
Fig. 4 CH004 arrests the cell cycle at the S phase. a CH004 reduces the cell viability of HEK293T and HepG2 cells. HEK293T or HepG2 cells were treated with indicated concentrations of CH004 for 24 h before the cell number was analyzed using the CellTiter96® Aqueous One Solution Cell Proliferation Assay (Promega, Materials and Methods). The means at each concentration of one representative experiment are shown as percentages of DMSO (control, 100%). Means ± SDs (n = 3). b Overexpression of hCBS or knock-down of hCBS counteracts the growth inhibition exerted by CH004 in HEK293T cells. Indicated HEK293T stable cell lines were treated with the CH004 or DMSO for 24 h. Then, the cell viability was quantified with the CellTiter 96® Aqueous One Solution Cell Proliferation Assay under the standard protocol (Promega). […] The efficacy for CBS overexpression and knock-down in HEK293T cells was determined by Western blotting using an anti-CBS antibody (3E1, 1:2000; Abnova). c CH004 induces cell death in HEK293T and HepG2 cells. […] HEK293T cells were incubated with indicated compounds for 12 h, and the DNA content was quantified with propidium iodide to analyze the cell cycle distribution by flow cytometry (e). The cell cycle distributions for HEK293T-shNT and HEK293T-shCBS cells were accordingly analyzed and are shown in f. […]

In experiment [2] the test system is HepG2 cells. In words: intracellular ROS (DCFH-DA, flow cytometry). The following applies: HepG2, 12 h. It is filed as cell-based, human. Here is the method: Fig. 5 In situ reduction of CBS activity and H2S in mitochondria by CH004 is coupled with an increase of intracellular ROS. a, b CH004 dose-dependently elevates ROS levels in both HepG2 (a) and HEK293T cells (b). The cells were treated with CH004 for 12 h or with 1 mM H2O2 for 30 min before the staining with DCFH-DA (Molecular Probes) and the analyzsis by flow cytometry (“Materials and Methods” section). Means ± SDS (n = 3). […] HepG2 cells were incubated with indicated inhibitors for 8 h before staining with the mitochondria tracker Mito-tracker® Green (Invitrogen) and the AzMC probe. Cyan represents the colocalization of H2S (blue) and the mitochondria tracker (green). Bars: 50 μm. d hCBS co-localizes with the mitochondria in HepG2 and HEK293T cells. HepG2 and HEK293T cells were stained with an anti-CBS antibody (3E1, 1:200; Abnova) for hCBS (red), Mito-tracker® Green for the mitochondria (green) and DAPI for the nucleus (blue). […]
To investigate the intracellular ROS levels, HEK293T or HepG2 cells were seeded in 6-well plates for one day, then incubated with the indicated inhibitors and 1 mM H2O2 for 12 h and 30 min, respectively. After trypsinization and one wash in PBS, the collected cells were resuspended in PBS and incubated with 100 μM probe DCFH-DA for 30 min at 37 °C before being analyzed using an LSR Fortessa flow cytometer.

For the molecule `Cn1nc(Cc2ccccc2)nc2c(=O)n(C)c(=O)nc1-2` [CH004, 3-benzyl-1,6-dimethylpyrimido[5,4-e][1,2,4]triazine-5,7(1H,6H)-dione], in experiment [1], the “increase in cell number in the S phase” value was “more than 20%”. Moreover, the “maximum increase of cellular ROS” value in experiment [2] is ~ 2 fold.
